From patent US20250144067A1, “PERSONALIZED STARVATION THERAPY FOR CANCER” (Faeth Therapeutics, Inc., priority 2021, published 2025)
Where two headings read alike, the source gives them in different places.

Tests used:
[1] = system: NCI-H292 lung cancer cells; experiment: FDA drug screening, complete media vs cholesterol-free media without statin (TABLE 1); assay type: cell-based, human
[2] = system: NCI-H292 lung cancer cells; experiment: FDA drug screening, complete media vs cholesterol-free media with simvastatin (TABLE 2); assay type: cell-based, human
[3] = Complete minus Cholesterol-free, >0 enhanced anti-cancer activity, about 0 neutral, <0 antagonist
[4] = NCI-H292 cells, cholesterol-free media without statin, FDA drug library screen
[5] = NCI-H292 cells, complete media, FDA drug library screen
[6] = complete media minus cholesterol-free media + simvastatin, >0 enhanced anti-cancer activity, about 0 neutral, <0 antagonist
[7] = Complete minus Cholesterol-free, […]
[8] = NCI-H292 cells, cholesterol-free media without statin
[9] = complete media minus cholesterol-free media + simvastatin, […]
[10] = complete vs cholesterol-free media, […]
[11] = NCI-H292 cells, FDA drug library screen, cholesterol-free media with simvastatin 0.04 μM
[12] = NCI-H292 cells, FDA drug library screen, complete media
[13] = complete media vs cholesterol-free media + simvastatin (0.04 μM), […]
[14] = complete media vs cholesterol-free media + simvastatin (0.04 μM), >0 enhanced anti-cancer activity, about 0 neutral, <0 antagonist
[15] = NCI-H292 cells, drug in cholesterol-free media with simvastatin 0.04 μM
[16] = NCI-H292 cells, drug in complete media
[17] = NCI-H292 cells, complete media, FDA drug library screen (TABLE 2)
[18] = complete vs cholesterol-free media, greater than 0 enhanced anti-cancer activity, about 0 neutral, below 0 antagonists

Tedizolid (phosphate)
Difference [1, 3]: −0.01
Cholesterol-free [1, 4]: 0.8406
Complete [1, 5]: 0.8345
Cholesterol-free media + simvastatin (0.04 μM) ([2]; NCI-H292 cells, cholesterol-free media with simvastatin 0.04 μM, cell growth value in FDA drug screen): 0.7735
Complete Media ([2]; NCI-H292 cells, complete media, cell growth value in FDA drug screen): 0.8096
Difference [2, 6]: 0.04

Tegaserod (maleate)
Difference [1, 7]: −0.26
Cholesterol-free [1, 8]: 0.9824
Complete ([1]; NCI-H292 cells, complete media): 0.7272
Cholesterol-free media + simvastatin (0.04 μM) ([2]; NCI-H292 cells, cholesterol-free media with simvastatin 0.04 μM, […]): 0.7216
Complete Media ([2]; NCI-H292 cells, complete media, […]): 0.7473
Difference [2, 9]: 0.03

Tenofovir alafenamide hemifumarate
Cholesterol-free [1]: 0.4256
Complete [1]: 0.5492
Difference [1]: 0.12
Cholesterol-free media + simvastatin (0.04 μM) [2]: 0.5107
Complete Media [2]: 0.4195
Difference [2]: −0.09

Teprenone
Cholesterol-free [1, 8]: 1.353
Difference [1, 10]: −0.31
Cholesterol-free media + simvastatin (0.04 μM) [2, 11]: 1.117
Complete Media [2, 12]: 0.9777
Difference [2, 13]: −0.14

Terbutaline (sulfate)
Difference [1, 3]: −0.29
Cholesterol-free [1, 8]: 1.263
Complete ([1]; NCI-H292 cells, complete media): 0.9738
Cholesterol-free media + simvastatin (0.04 μM) [2, 11]: 1.189
Difference [2, 14]: −0.15

Thiamine nitrate
Difference [1, 3]: −0.26
Cholesterol-free [1, 8]: 0.9749
Complete ([1]; NCI-H292 cells, complete media): 0.7175
Cholesterol-free media + simvastatin (0.04 μM) [2, 15]: 0.9067
Complete Media [2, 16]: 0.7018
Difference [2, 14]: −0.20

Thymopentin (acetate)
Cholesterol-free [1, 4]: 0.9838
Complete [1, 5]: 1.095
Difference [1, 10]: 0.11
Complete Media [2, 17]: 1.151
Difference ([2]; complete media minus cholesterol-free media + simvastatin (0.04 μM), […]): 0.00

Toceranib (phosphate)
Cholesterol-free [1, 8]: 1.278
Complete ([1]; NCI-H292 cells, complete media): 0.9469
Difference [1, 18]: −0.33
Cholesterol-free media + simvastatin (0.04 μM) [2, 11]: 0.9001
Difference [2, 6]: 0.14

Tocofersolan
Cholesterol-free [1, 8]: 0.7811
Complete ([1]; NCI-H292 cells, complete media): 0.4609
Difference [1, 10]: −0.32
Cholesterol-free media + simvastatin (0.04 μM) [2, 11]: 0.3462
Complete Media [2, 12]: 0.6285
Difference [2, 9]: 0.28

Tofacitinib (citrate)
Difference [1, 3]: −0.26
Cholesterol-free [1, 8]: 0.8106
Complete ([1]; NCI-H292 cells, complete media): 0.5473
Cholesterol-free media + simvastatin (0.04 μM) [2, 15]: 0.9122
Complete Media [2, 16]: 0.6806
Difference [2, 14]: −0.23

Tolterodine (tartrate)
Cholesterol-free [1]: 1.873
Complete [1]: 0.9529
Difference [1]: −0.92
Cholesterol-free media + simvastatin (0.04 μM) [2]: 1.183
Complete Media [2]: 1.127
Difference [2]: −0.06

Toremifene (citrate)
Complete [1]: 0.7656
Difference [1]: −0.28
Cholesterol-free media + simvastatin (0.04 μM) [2]: 0.4491
Difference [2]: 0.61

Tosufloxacin (tosylate hydrate)
Cholesterol-free [1, 8]: 1.21
Complete ([1]; NCI-H292 cells, complete media): 0.8679
Difference [1, 18]: −0.34
Cholesterol-free media + simvastatin (0.04 μM) [2, 11]: 1.004
Complete Media [2, 12]: 0.9272
Difference [2, 14]: −0.08

Trelagliptin (succinate)
Cholesterol-free [1, 8]: 1.469
Complete ([1]; NCI-H292 cells, complete media): 1.135
Difference [1, 18]: −0.33
Cholesterol-free media + simvastatin (0.04 μM) [2, 11]: 1.757
Complete Media [2, 12]: 1.617
Difference [2, 14]: −0.14

Triamcinolone (acetonide)
Difference [1, 3]: −0.04
Cholesterol-free [1, 4]: 0.5663
Complete [1, 5]: 0.5288
Cholesterol-free media + simvastatin (0.04 μM) ([2]; NCI-H292 cells, cholesterol-free media with simvastatin 0.04 μM, FDA drug library screen (TABLE 2)): 0.6359
Complete Media [2, 17]: 0.588
Difference ([2]; complete media minus cholesterol-free media + simvastatin (0.04 μM), >0 enhanced anti-cancer activity, about 0 neutral, <0 antagonist): −0.05

Trimebutine (maleate)
Difference [1, 7]: −0.13
Cholesterol-free ([1]; NCI-H292 cells, FDA drug library screen, cholesterol-free media without statin): 0.9442
Complete [1, 12]: 0.8142
Cholesterol-free media + simvastatin (0.04 μM) [2, 11]: 0.6516
Complete Media [2, 12]: 0.9282
Difference [2, 9]: 0.28

Trimipramine (maleate)
Difference ([1]; Complete minus Cholesterol-free, greater than 0 enhanced anti-cancer activity, about 0 neutral, below 0 antagonists): −0.51
Cholesterol-free ([1]; NCI-H292 cells in cholesterol-free media without statin): 1.537
Complete ([1]; NCI-H292 cells in complete media): 1.022
Cholesterol-free media + simvastatin (0.04 μM) [2, 11]: 1.033
Complete Media [2, 12]: 1.193
Difference [2, 6]: 0.16

Valemetostat (tosylate)
Cholesterol-free [1, 8]: 1.464
Complete ([1]; NCI-H292 cells, complete media): 1.052
Difference [1, 10]: −0.41
Cholesterol-free media + simvastatin (0.04 μM) [2, 15]: 1.195
Complete Media [2, 16]: 0.9379
Difference [2, 13]: −0.26
